What was measured:
[1] = molecular target: T1, progerin-lamin A binding (Homo sapiens, UniProt P02545); assay: GST pull-down assay of progerin-lamin A binding; conditions: 5 μM
T1 construct: expressed in transfected cells; host or cells: HEK293 (GFP-progerin); the GST-lamin A bait is a recombinant protein, with E. coli B834 (DE3) named for the lamin A/C fragments
T1 sequence (P02545 1-611 isoform P02545-6): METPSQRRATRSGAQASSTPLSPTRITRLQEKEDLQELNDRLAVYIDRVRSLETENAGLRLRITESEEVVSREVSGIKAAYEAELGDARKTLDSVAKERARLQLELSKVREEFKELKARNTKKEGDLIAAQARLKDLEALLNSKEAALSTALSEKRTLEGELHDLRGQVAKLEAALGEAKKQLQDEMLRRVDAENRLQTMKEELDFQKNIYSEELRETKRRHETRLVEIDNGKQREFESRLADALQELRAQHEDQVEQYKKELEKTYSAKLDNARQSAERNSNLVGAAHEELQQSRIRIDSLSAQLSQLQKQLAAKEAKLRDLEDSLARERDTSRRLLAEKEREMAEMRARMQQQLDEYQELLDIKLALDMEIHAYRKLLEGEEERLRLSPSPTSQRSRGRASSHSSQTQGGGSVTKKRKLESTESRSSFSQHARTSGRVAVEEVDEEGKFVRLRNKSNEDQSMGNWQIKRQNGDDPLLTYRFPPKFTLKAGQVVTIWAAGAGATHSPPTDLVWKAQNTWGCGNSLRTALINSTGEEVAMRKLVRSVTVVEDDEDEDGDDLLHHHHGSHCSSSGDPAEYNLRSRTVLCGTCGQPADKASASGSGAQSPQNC
Protocol: Fig. 1 SLC-D011 ameliorates premature aging features of HGPS. A. HEK293 cells were transiently transfected with expression vector encoding wild-type lamin A (WT-LA), lamin A-C661A (LA-C661A), progerin, or progerin-C611A. LA-C661A or progerin-C611A with point mutation in CaaX motif was predicted to be lack of farnesylation, […] that of authentic WT-LA or progerin. GFP-conjugated empty expression vector was used as a negative control. Cells were visualized at 24 h after transfection. B Transient transfection of HEK293 cells with expression vector encoding progerin or progerin-G611A leads to reduced expression of H3K9me3 (n = 3 independent experiments; two-tailed Student’s t test). C. JH4 derivatives (JH010 and SLC-D011(D011)) inhibit lamin A and progerin interaction. For binding inhibition assay, bead-conjugated lamin A (GST-LA) was incubated with HEK293 cells, transiently transfected with GFP-progerin (PG), and treated with indicated chemicals. Actin was used as a loading control. PPT, co-precipitated materials with recombinant proteins; Sup supernatant. 5 μM of each chemical was used for binding assay. […] H3K9me3 reduction is a well-known marker for premature aged cells. Thus, H3K9me3 expression was evaluated by immunostaining. […] Cell viability was determined by MTT assay after incubation with chemicals for 7 days (n = 3 independent experiments; two-tailed Student’s t test). […]

[2] = molecular target: T2, CYP1A2 (Homo sapiens, UniProt P05177); assay: CYP inhibition, CYP1A2; type: in vitro ADME
T2 sequence (P05177 1-516): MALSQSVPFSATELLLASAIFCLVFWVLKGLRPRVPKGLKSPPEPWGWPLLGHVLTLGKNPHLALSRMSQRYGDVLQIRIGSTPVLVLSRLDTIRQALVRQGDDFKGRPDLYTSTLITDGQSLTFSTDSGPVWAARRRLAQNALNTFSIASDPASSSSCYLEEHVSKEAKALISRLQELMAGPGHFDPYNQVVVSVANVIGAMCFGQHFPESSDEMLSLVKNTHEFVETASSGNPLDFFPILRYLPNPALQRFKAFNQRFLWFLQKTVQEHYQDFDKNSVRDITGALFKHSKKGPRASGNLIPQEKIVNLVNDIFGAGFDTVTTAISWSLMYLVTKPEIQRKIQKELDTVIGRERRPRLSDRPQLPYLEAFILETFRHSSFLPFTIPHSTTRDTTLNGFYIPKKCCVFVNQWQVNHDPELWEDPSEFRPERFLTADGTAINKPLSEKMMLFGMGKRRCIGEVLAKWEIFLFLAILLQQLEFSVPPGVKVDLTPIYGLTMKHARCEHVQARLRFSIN
Protocol: At pre-set time-points, blood concentration of JH4 was determined by LC-MS/MS analysis[22],[23]. Other chemicals were also tested using similar protocol. In vitro ADME studies (plasma protein binding, CYP inhibition, microsomal stability, plasma stability, and hERG inhibition) were performed by New Drug Development Center (Daegu, Korea) using standard protocols[24],[25].

Q: With CC1(C)Oc2cc3oc(=O)ccc3cc2C[C@@H]1OC/C=C/c1ccccc1 [SLC-D011] as the compound, how does the “Effect on interaction of progerin and lamin A” value [1] read?
A: could block the interaction of progerin and lamin A

Q: And the CYP inhibition [2]?
A: 81.6

— publication PMC7782499, “Progerinin, an optimized progerin-lamin A binding inhibitor, ameliorates premature senescence phenotypes of Hutchinson-Gilford progeria syndrome” (Communications Biology, 2021)
